Measurements reported in ChEMBL document CHEMBL1146813, “Synthesis and antibacterial activity of novel bifunctional macrolides” (2004).
Values after ≈ are worked out from the molar mass of the structure shown.

Experiments:
Type in all cases: functional
[1] = test system: Haemophilus influenzae; experiment: In vitro antibacterial activity against Haemophilus influenzae GYR1435 (fully susceptible strain)
[2] = test system: Staphylococcus aureus; experiment: In vitro antibacterial activity against Staphylococcus aureus 1775 (methicillin-resistant strain(MRSA))
[3] = test system: Staphylococcus aureus; experiment: In vitro antibacterial activity against Staphylococcus aureus NCTC 10649 (erythromycin-susceptible strain)
[4] = test system: Streptococcus pneumoniae; experiment: In vitro antibacterial activity against Streptococcus pneumoniae 5649 (efflux-resistant strain bearing a mef (E) gene)
[5] = test system: Streptococcus pneumoniae; experiment: In vitro antibacterial activity against Streptococcus pneumoniae 5979 (MLSB resistant stain bearing an erm (B) gene)
[6] = test system: Streptococcus pneumoniae; experiment: In vitro antibacterial activity against Streptococcus pneumoniae ATCC 6303 (an erythromycin-susceptible strain)

| SMILES | MIC [1] [µg/mL] | MIC [2] [µg/mL] | MIC [3] [µg/mL] | MIC [4] [µg/mL] | MIC [5] [µg/mL] | MIC [6] [µg/mL] |
| --- | --- | --- | --- | --- | --- | --- |
| CC[C@H]1OC(=O)[C@H](C)C(=O)[C@H](C)[C@@H](O[C@@H]2O[C@H](C)C[C@H](N(C)C)[C@H]2O)[C@@](C)(OC)C[C@@H](C)/C(=N\OCCNCCCOCCCNCc2cc(Cl)cc(Cl)c2)[C@H](C)[C@@H](O)[C@]1(C)O | 8 (≈ 8.7 µM) | > 128 | 1 (≈ 1.09 µM) | 0.015 (≈ 0.0163 µM) | 4 (≈ 4.35 µM) | ≤ 0.008 |
| CC[C@H]1OC(=O)[C@H](C)C(=O)[C@H](C)[C@@H](O[C@@H]2O[C@H](C)C[C@H](N(C)C)[C@H]2O)[C@@](C)(OC)C[C@@H](C)/C(=N\OCCNCCCOCCCNCc2ccccc2)[C@H](C)[C@@H](O)[C@]1(C)O | 128 (≈ 150 µM) | ≥ 128 | 16 (≈ 18.8 µM) | 0.25 (≈ 0.294 µM) | 1 (≈ 1.17 µM) | 0.12 (≈ 0.141 µM) |
| CC[C@H]1OC(=O)[C@H](C)[C@@H](OC(=O)NCCCOCCCNC(=O)Cc2ccc(OC)cc2)[C@H](C)[C@@H](O[C@@H]2O[C@H](C)C[C@H](N(C)C)[C@H]2O)[C@@](C)(OC)C[C@@H](C)C(=O)[C@H](C)[C@H]2NC(=O)O[C@@]21C | 16 (≈ 17.4 µM) | > 128 | 8 (≈ 8.68 µM) | 0.5 (≈ 0.543 µM) | > 128 | 0.5 (≈ 0.543 µM) |
| CC[C@H]1OC(=O)[C@H](C)C(=O)[C@H](C)[C@@H](O[C@@H]2O[C@H](C)C[C@H](N(C)C)[C@H]2O)[C@@](C)(OC)C[C@@H](C)/C(=N\OCCNCCCOCCOCCCNc2ccc(Oc3ccccc3)cc2)[C@H](C)[C@@H](O)[C@]1(C)O | 64 (≈ 65.8 µM) | 128 (≈ 132 µM) | 2 (≈ 2.05 µM) | 1 (≈ 1.03 µM) | 2 (≈ 2.05 µM) | 0.12 (≈ 0.123 µM) |
| CC[C@H]1OC(=O)[C@H](C)C(=O)[C@H](C)[C@@H](O[C@@H]2O[C@H](C)C[C@H](N(C)C)[C@H]2O)[C@@](C)(OC)C[C@@H](C)/C(=N\OCCNCCCOCCOCCOCCCNc2ccc(Oc3ccccc3)cc2)[C@H](C)[C@@H](O)[C@]1(C)O | 32 (≈ 31.5 µM) | 128 (≈ 126 µM) | 2 (≈ 1.97 µM) | 1 (≈ 0.983 µM) | 2 (≈ 1.97 µM) | 0.25 (≈ 0.246 µM) |
| CC[C@H]1OC(=O)[C@H](C)C(=O)[C@H](C)[C@@H](O[C@@H]2O[C@H](C)C[C@H](N(C)C)[C@H]2O)[C@@](C)(OC)C[C@@H](C)/C(=N\OCCNCCCCNCc2ccc(Oc3ccccc3)cc2)[C@H](C)[C@@H](O)[C@]1(C)O | 16 (≈ 17.8 µM) | 32 (≈ 35.6 µM) | 16 (≈ 17.8 µM) | 0.25 (≈ 0.278 µM) | 0.5 (≈ 0.556 µM) | 0.015 (≈ 0.0167 µM) |
| C=CC(C)C(=O)NCCNC(=O)O[C@H]1[C@H](C)[C@@H](O[C@@H]2O[C@H](C)C[C@H](N(C)C)[C@H]2O)[C@@](C)(OC)C[C@@H](C)C(=O)[C@H](C)[C@H]2NC(=O)O[C@]2(C)[C@@H](CC)OC(=O)[C@@H]1C (stereo not given in full) | 128 (≈ 163 µM) | > 128 | 64 (≈ 81.7 µM) |  | > 128 | 0.25 (≈ 0.319 µM) |
| CC[C@H]1OC(=O)[C@H](C)C(=O)[C@H](C)[C@@H](O[C@@H]2O[C@H](C)C[C@H](N(C)C)[C@H]2O)[C@@](C)(OC)C[C@@H](C)/C(=N\OCCNCCCCCCNCc2ccc(OC)cc2)[C@H](C)[C@@H](O)[C@]1(C)O | 4 (≈ 4.62 µM) | > 128 | 1 (≈ 1.16 µM) | 0.12 (≈ 0.139 µM) | 2 (≈ 2.31 µM) | ≤ 0.008 |
| CC[C@H]1OC(=O)[C@H](C)C(=O)[C@H](C)[C@@H](O[C@@H]2O[C@H](C)C[C@H](N(C)C)[C@H]2O)[C@@](C)(OC)C[C@@H](C)/C(=N\OCCNCCCNCc2ccc(Oc3ccccc3)cc2)[C@H](C)[C@@H](O)[C@]1(C)O | 13 (≈ 14.7 µM) | 64 (≈ 72.3 µM) | 32 (≈ 36.2 µM) | 1 (≈ 1.13 µM) | 32 (≈ 36.2 µM) | 0.12 (≈ 0.136 µM) |
| CC[C@H]1OC(=O)[C@H](C)C(=O)[C@H](C)[C@@H](O[C@@H]2O[C@H](C)C[C@H](N(C)C)[C@H]2O)[C@@](C)(OC)C[C@@H](C)/C(=N\OCCNCCCCCCNCc2cccc(Oc3ccccc3)c2)[C@H](C)[C@@H](O)[C@]1(C)O | 4 (≈ 4.31 µM) | 64 (≈ 69 µM) | 2 (≈ 2.16 µM) | 0.5 (≈ 0.539 µM) | 0.12 (≈ 0.129 µM) | ≤ 0.008 |
| CC[C@H]1OC(=O)[C@H](C)C(=O)[C@H](C)[C@@H](O[C@@H]2O[C@H](C)C[C@H](N(C)C)[C@H]2O)[C@@](C)(OC)C[C@@H](C)C(=O)[C@H](C)[C@@H](O)[C@]1(C)O | 64 (≈ 109 µM) | > 128 | 0.5 (≈ 0.851 µM) | 0.12 (≈ 0.204 µM) | > 128 | 0.06 (≈ 0.102 µM) |
| CC[C@H]1OC(=O)[C@H](C)C(=O)[C@H](C)[C@@H](O[C@@H]2O[C@H](C)C[C@H](N(C)C)[C@H]2O)[C@@](C)(OC)C[C@@H](C)/C(=N\OCCNCCCOCCCNCc2ccc(Cl)c(Cl)c2)[C@H](C)[C@@H](O)[C@]1(C)O | 16 (≈ 17.4 µM) | > 128 | 2 (≈ 2.17 µM) | 0.5 (≈ 0.543 µM) | 0.25 (≈ 0.272 µM) | 0.06 (≈ 0.0652 µM) |
| CC[C@H]1OC(=O)[C@H](C)C(=O)[C@H](C)[C@@H](O[C@@H]2O[C@H](C)C[C@H](N(C)C)[C@H]2O)[C@@](C)(OC)C[C@@H](C)/C(=N\OCCNCCCOCCCNCc2cnc3ccccc3c2)[C@H](C)[C@@H](O)[C@]1(C)O | 64 (≈ 70.9 µM) | > 128 | 0.5 (≈ 0.554 µM) | 0.5 (≈ 0.554 µM) | 0.25 (≈ 0.277 µM) | 0.06 (≈ 0.0665 µM) |
| CC[C@H]1OC(=O)[C@H](C)C(=O)[C@H](C)[C@@H](O[C@@H]2O[C@H](C)C[C@H](N(C)C)[C@H]2O)[C@@](C)(OC)C[C@@H](C)/C(=N\OCCNCCCOCCCNCc2cn(C)c3ccc(F)cc23)[C@H](C)[C@@H](O)[C@]1(C)O | 8 (≈ 8.68 µM) | 64 (≈ 69.4 µM) | 1 (≈ 1.08 µM) | 0.06 (≈ 0.0651 µM) | 4 (≈ 4.34 µM) | ≤ 0.008 |
| CC[C@H]1OC(=O)[C@H](C)C(=O)[C@H](C)[C@@H](O[C@@H]2O[C@H](C)C[C@H](N(C)C)[C@H]2O)[C@@](C)(OC)C[C@@H](C)/C(=N\OCCNCCCOCCCCOCCCNCc2ccc3ccccc3c2)[C@H](C)[C@@H](O)[C@]1(C)O | 32 (≈ 32.9 µM) | > 128 | 32 (≈ 32.9 µM) | 1 (≈ 1.03 µM) | 1 (≈ 1.03 µM) | 0.12 (≈ 0.123 µM) |
| CC[C@H]1OC(=O)[C@H](C)C(=O)[C@H](C)[C@@H](O[C@@H]2O[C@H](C)C[C@H](N(C)C)[C@H]2O)[C@@](C)(OC)C[C@@H](C)/C(=N\OCCNCC2CCC(CNCc3ccc(Oc4ccccc4)cc3)CC2)[C@H](C)[C@@H](O)[C@]1(C)O (stereo not given in full) | 8 (≈ 8.39 µM) | 32 (≈ 33.6 µM) | 4 (≈ 4.2 µM) | 0.12 (≈ 0.126 µM) | 0.06 (≈ 0.0629 µM) | 0.06 (≈ 0.0629 µM) |
| CC[C@H]1OC(=O)[C@H](C)C(=O)[C@H](C)[C@@H](O[C@@H]2O[C@H](C)C[C@H](N(C)C)[C@H]2O)[C@@](C)(OC)C[C@@H](C)/C(=N\OCCNCCCOCCCNCc2ccc(Oc3ccccc3)cc2)[C@H](C)[C@@H](O)[C@]1(C)O | 2 (≈ 2.12 µM) | 64 (≈ 67.9 µM) | 2 (≈ 2.12 µM) | ≤ 0.008 | 0.06 (≈ 0.0636 µM) | ≤ 0.008 |
| CC[C@H]1OC(=O)[C@H](C)C(=O)[C@H](C)[C@@H](O[C@@H]2O[C@H](C)C[C@H](N(C)C)[C@H]2O)[C@@](C)(OC)C[C@@H](C)/C(=N\OCCNCC2CCC(CNCc3cccc(Oc4ccccc4)c3)CC2)[C@H](C)[C@@H](O)[C@]1(C)O (stereo not given in full) | 8 (≈ 8.39 µM) | 64 (≈ 67.1 µM) | 4 (≈ 4.2 µM) | 0.12 (≈ 0.126 µM) | 2 (≈ 2.1 µM) | ≤ 0.008 |
| CC[C@H]1OC(=O)[C@H](C)C(=O)[C@H](C)[C@@H](O[C@@H]2O[C@H](C)C[C@H](N(C)C)[C@H]2O)[C@](C)(OCC=Cc2cnc3ccccc3c2)C[C@@H](C)C(=O)[C@H](C)[C@H]2NC(=O)O[C@@]21C [CETHROMYCIN] | 0.5 (≈ 0.653 µM) | > 128 | 0.12 (≈ 0.157 µM) | ≤ 0.008 | ≤ 0.008 | ≤ 0.008 |
| CC[C@H]1OC(=O)[C@H](C)[C@@H](O[C@H]2C[C@@](C)(OC)[C@@H](O)[C@H](C)O2)[C@H](C)[C@@H](O[C@@H]2O[C@H](C)C[C@H](N(C)C)[C@H]2O)[C@](C)(O)C[C@@H](C)C(=O)[C@H](C)[C@@H](O)[C@]1(C)O [ERYTHROMYCIN] | 2 (≈ 2.73 µM) | > 128 | 0.25 (≈ 0.341 µM) | 4 (≈ 5.45 µM) | > 128 | 0.03 (≈ 0.0409 µM) |
| CC[C@H]1OC(=O)[C@H](C)C(=O)[C@H](C)[C@@H](O[C@@H]2O[C@H](C)C[C@H](N(C)C)[C@H]2O)[C@](C)(OC)C[C@@H](C)C(=O)[C@H](C)[C@H]2N(CCCCn3cnc(-c4cccnc4)c3)C(=O)O[C@]12C [TELITHROMYCIN] | 2 (≈ 2.46 µM) | > 128 | 0.06 (≈ 0.0739 µM) | 0.25 (≈ 0.308 µM) | 0.06 (≈ 0.0739 µM) | ≤ 0.008 |
